Laboratory results taken from patent US20240115557A1, “INHIBITORS OF RNA-GUIDED NUCLEASES AND USES THEREOF” (The Brigham and Women's Hospital, Inc., priority 2022, published 2024).

Biological target: T1, SaCas9 (Staphylococcus aureus, UniProt J7RUA5)
T1 sequence (J7RUA5 1-1053): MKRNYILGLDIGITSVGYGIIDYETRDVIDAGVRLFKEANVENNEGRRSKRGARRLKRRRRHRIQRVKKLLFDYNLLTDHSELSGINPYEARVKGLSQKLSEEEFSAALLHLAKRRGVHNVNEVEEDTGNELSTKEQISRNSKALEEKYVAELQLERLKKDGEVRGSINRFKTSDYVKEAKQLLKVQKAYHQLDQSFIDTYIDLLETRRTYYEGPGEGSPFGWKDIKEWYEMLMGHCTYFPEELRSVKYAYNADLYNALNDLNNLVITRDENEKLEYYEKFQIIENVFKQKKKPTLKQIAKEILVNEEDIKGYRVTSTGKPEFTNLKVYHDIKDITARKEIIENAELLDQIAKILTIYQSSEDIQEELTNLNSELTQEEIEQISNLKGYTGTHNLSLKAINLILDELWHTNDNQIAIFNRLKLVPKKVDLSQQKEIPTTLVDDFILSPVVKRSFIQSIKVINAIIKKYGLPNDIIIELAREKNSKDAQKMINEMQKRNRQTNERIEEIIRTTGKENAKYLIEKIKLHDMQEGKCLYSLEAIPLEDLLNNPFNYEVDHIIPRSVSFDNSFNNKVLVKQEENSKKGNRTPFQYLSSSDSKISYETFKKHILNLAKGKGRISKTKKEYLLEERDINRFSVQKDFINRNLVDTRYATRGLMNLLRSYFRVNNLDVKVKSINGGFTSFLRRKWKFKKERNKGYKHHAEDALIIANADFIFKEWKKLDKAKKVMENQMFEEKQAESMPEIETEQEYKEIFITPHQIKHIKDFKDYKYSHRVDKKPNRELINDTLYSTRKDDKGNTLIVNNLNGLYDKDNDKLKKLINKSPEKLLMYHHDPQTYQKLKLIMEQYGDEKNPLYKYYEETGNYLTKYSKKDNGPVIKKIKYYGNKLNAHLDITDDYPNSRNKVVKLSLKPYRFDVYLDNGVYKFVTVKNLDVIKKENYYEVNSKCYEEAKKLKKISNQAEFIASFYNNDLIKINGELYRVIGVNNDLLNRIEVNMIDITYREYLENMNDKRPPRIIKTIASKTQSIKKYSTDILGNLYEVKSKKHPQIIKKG
Experiment: Strand displacement assay, SaCas9 primary screen
Format: biochemical
Conditions: for Auto Zscore Rep 1 / Auto Zscore Rep 2 / Normalized Zscore Rep 1 / Normalized Zscore Rep 2: SaCas9 primary screen; for Auto Zscore Rep 1 / Normalized Zscore Rep 1: replicate 1; for Auto Zscore Rep 2 / Normalized Zscore Rep 2: replicate 2; for Normalized Zscore Rep 1 / Normalized Zscore Rep 2: weaker potential hits; for 3 sigma Hit: flag 1 = hit at 3 sigma; for 5 sigma Hit: flag 1 = hit at 5 sigma
Procedure: An overview of the screening for SaCas9 inhibitors is depicted in FIG. 14. A total of 43,168 Compounds were screened from the ICCB Libraries. Libraries screened for the initial compounds include ChemDiv 7 (34,848 cpds), Enamine 1 (5,280 cpds), ChemDiv1 (1,760 cpds), NIH Clinical Collection (450 cpds), Biomol 4—FDA Approved Library (640 cpds). A hit is determined from the Zscore, with 3-5σ being a weak hit, >5σ being a strong hit. The results of the hits include 193 Weak Hits and 249 Strong Hits. The NIH Clinical Collection 1-2014 was screened for 450 of 450 compounds, with 7 hits—1.5%. The Biomol 4—FDA Approved Library was screened for 640 of 640 compounds, with 8 hits—1.2%. […] Enamine 1 was screened for 5,280 of 6,004 compounds, with 44 hits—0.83%. Libraries are commercially available, with reference numbers utilized for compounds identifying the compound structures used. […]
Generalization of CAA to other Cas nucleases. Applicants sought to generalize CAA to other CRISPR-associated nucleases, including from Staphylococcus aureus (SaCas9). Given the similarities between SaCas9 and SpCas9 modes of DNA-substrate binding and protein folding,^26, 27 Applicants hypothesized that SaCas9-induced strand displacement could be similarly measured. Indeed, fluorescence quenching correlated with substrate cleavage in the CAA assay with active SaCas9:gRNA and an ACGGGT PAM sequence, which was validated with gel electrophoresis (FIG. 62F,G and FIG. 69F).
First, Applicants optimized various components and conditions of the strand displacement assay for Cas enzyme activity and generality with different Cas such as SpCas9 (FIG. 62B) or SaCas9 (FIG. 69F) or FnCas12a (FIG. 70A,B). Typically, SpCas9: gRNA (1:1.2 ratio) RNP was pre-formed at 1 μM in Cas9 assay buffer (20 mM Tris-HCl, pH=7.5, 100 mM KCl, 5 mM MgCl2) for 5 min at 4° C. before diluting to 10 nM in Cas9 assay buffer (2× final concentration). 25 μL of the Cas9 2× stock was manually dispensed to a black 384-well plate (Corning 3575) using electronic pipette. Apo SpCas9 (without guide RNA) was used at the same concentration as a control for no activity (mock inhibition). Following this, pre-annealed Alexa-Fluor 647 labeled substrate and quencher were also diluted to 1 nM and 5 nM in Cas9 assay buffer, respectively (2× stock solution). Next, 25 μL of the substrate/quencher solution was added manually to each well of the Cas9-containing 384-well plates using an electronic pipette and was incubated at 37° C. for 2.5 h. Fluorescent signals were read with the microplate reader set to read Alexa-Fluor 647 fluorescence. Assay was performed similarly with SaCas9 and FnCas12a using the respective enzyme, gRNA, substrate, and quencher oligos. Applicants similarly divulged the effect of PAM sequences of dsDNA on its assay specificity using TGG, TGC, AAC PAM containing substrates for SpCas9 (FIG. 62C), and ACGGGT, ACGGTT, TGCCCA PAM substrate for SaCas9 (FIG. 62F) and TTTC, TTGC, AAAG PAM substrates for FnCpf1 (FIG. 63B-C). Applicants also optimized the effective concentration of DS-AF647 and SS-AF647 fluorophores (FIG. 64A), DS-substrate to SpCas9 RNP ratio (FIG. 64B) and substrate to quencher ratio (FIG. 64C) on assay performance. Similarly, Applicants performed a time course experiment to establish the time required for maximum completion of the reaction at various substrate to SpCas9 RNP ratios (FIG. 64D).

| SMILES | Auto Zscore Rep 1 | Auto Zscore Rep 2 | Normalized Zscore Rep 1 | Normalized Zscore Rep 2 | 3 sigma Hit | 5 sigma Hit |
| --- | --- | --- | --- | --- | --- | --- |
| COc1ccc(-c2[nH]nc3nc(-c4ccc(O)c(O)c4)cc(C(=O)O)c23)cc1 [Cpd C202-1892] | −1.82 | −0.3926 | 0.4084 | 0.4043 | 1 | 1 |
| COc1ccc2cc3c(N)nn(C(=O)c4ccncc4)c3nc2c1 [Cpd C594-0003] | −0.6022 | 0.6643 | 0.2515 | 0.1978 | 1 | – |
| COc1ccc2cc3c(N)nn(C(=O)c4ccc(F)cc4)c3nc2c1 [Cpd C594-0010] | 0.8616 | −0.4814 | 0.1698 | 0.2567 | 1 | – |
| Cn1nc(-c2ccc(Cl)cc2)c2cc(C(=O)O)sc21 [Cpd C660-1021] | 1.316 | 1.188 | 0.2339 | 0.1885 | 1 | 1 |
| Cc1nnc(NC(=O)CSc2ccc3nnc(-c4cccc(F)c4)n3n2)s1 [Cpd C742-0431] | −0.06844 | 0.2074 | 0.342 | 0.3107 | 1 | 1 |
| O=C(c1ccccc1)c1cnc2ccc(F)cc2c1S(=O)(=O)c1ccc(F)cc1 [Cpd C770-0245] | 0.1661 | 0.1101 | 0.2065 | 0.1929 | 1 | – |
| COc1cccc(CNCc2cccn2-c2sc(C)c(C)c2C(=O)O)c1 [Cpd C795-1664] | 0.429 | 0.8302 | 0.3494 | 0.3285 | 1 | 1 |
| CCSc1nc2c(c(=O)[nH]1)C(c1ccc(O)c(O)c1)CC(=O)N2 (stereo not drawn) [Cpd D271-0002] | −0.5592 | 0.1026 | 0.2655 | 0.3207 | 1 | 1 |
| O=C1CC(c2ccc(O)c(O)c2)c2c(nc(SCc3ccccc3)[nH]c2=O)N1 (stereo not drawn) [Cpd D271-0007] | −1.4647 | −0.1946 | 0.1942 | 0.18 | 1 | 1 |
| Cc1ccc(CSc2nc3c(c(=O)[nH]2)C(c2ccc(O)c(O)c2)CC(=O)N3)cc1 (stereo not drawn) [Cpd D271-0008] | −0.4729 | −0.3637 | 0.198 | 0.181 | 1 | 1 |
| O=C1CC(c2ccc(O)c(O)c2)c2c(nc(SCc3cccc(Cl)c3)[nH]c2=O)N1 (stereo not drawn) [Cpd D271-0012] | 0.2548 | 0.7649 | 0.1908 | 0.1893 | 1 | 1 |
| CCOC(=O)c1c(NC(=O)CSc2nnc3cc(C)c4cccc(OC)c4n23)sc(C)c1C [Cpd D278-0687] | 0.0101 | 0.4839 | 0.1526 | 0.1495 | 1 | 1 |
| COc1ccc(C2CC(=O)C3=C(C2)Nc2onc(C)c2C3c2ccc(O)c(O)c2)cc1OC (stereo not drawn) [Cpd D588-0034] | 0.4938 | −1.181 | 0.2106 | 0.2618 | 1 | 1 |

Next, values leading:

| Auto Zscore Rep 1 | Auto Zscore Rep 2 | Normalized Zscore Rep 1 | Normalized Zscore Rep 2 | 3 sigma Hit | 5 sigma Hit | SMILES |
| --- | --- | --- | --- | --- | --- | --- |
| −0.346 | −0.1307 | 0.1224 | 0.1125 | 1 | – | Cc1cccc(Cn2c(SCC(O)CO)nc3c2c(=O)[nH]c(=O)n3C)c1 (stereo not drawn) [Compound D226-0165] |
| 0.8868 | 0.9986 | 0.2248 | 0.1621 | 1 | – | c1ccc(CCCNc2nn3nnnc3c3ccccc23)cc1 [Cpd C301-8945] |
| 0.9351 | −0.9427 | 0.5034 | 0.5292 | 1 | 1 | Cc1nn2c(=O)cc(COc3ccc(C)c(C)c3)nc2s1 [Cpd C679-2752] |
| −0.0443 | −0.6268 | 0.1897 | 0.2665 | 1 | – | Cc1nnc(NC(=O)CSc2ccc3nnc(-c4ccc(F)cc4)n3n2)s1 [Cpd C742-0312] |
| −2.7 | −0.04169 | 0.1797 | 0.2066 | 1 | 1 | O=C1CC(c2ccc(O)c(O)c2)c2c(nc(SCc3ccc(Cl)cc3)[nH]c2=O)N1 (stereo not drawn) [Cpd D271-0011] |
| −1.668 | −0.1926 | 0.1601 | 0.1044 | 1 | 1 | Cn1c(=O)c2c(-c3ccccc3)n3c(c2n(C)c1=O)C(c1ccc(O)c(O)c1)Nc1ccccc1-3 (stereo not drawn) [Cpd D359-0009] |
| −0.203 | −0.05734 | 0.3533 | 0.2821 | 1 | 1 | Cc1n[nH]c2c1C(c1ccc(O)c(O)c1)CC(=O)N2 (stereo not drawn) [Cpd D361-0120] |
